Assay results taken from publication PMC10458893, “Design of Protegrin-1 Analogs with Improved Antibacterial Selectivity” (Pharmaceutics, 2023).
Converted amounts (≈) assume the structure as drawn. Where two headings read alike, the source gives them in different places. Positions of bridges follow the written chain, without caps; N, C: chain ends. Residues, ends and D or L forms follow the SMILES beside them.

How the values were obtained:
[1] = system: K. pneumoniae ATCC 700603; format: cell-based, Klebsiella pneumoniae; conditions: ATCC 700603, 24 h
Method: (§1) The antimicrobial activity of the peptides was determined using two-fold serial dilutions in sterile 96-well flat-bottom polystyrene microplates (Eppendorf, Hamburg, Germany) (Cat. No. 0030730011), as previously described. The following strains of bacteria were used: E. coli ATCC 25922, E. coli ML35p (ATCC collection), E. coli BW 25113 (Keio collection), Pseudomonas aeruginosa PAO1 (ATCC collection), P. aeruginosa ATCC 27853, Klebsiella pneumoniae ATCC 700603, Staphylococcus aureus 209P (ATCC collection), S. aureus ATCC 29213, and Micrococcus luteus B-1314 (VKM collection). Acinetobacter baumannii (strain XDR CI 2675) was provided by the I.M. Sechenov First Moscow State Medical University hospital. After a 24 h incubation period, the metabolic activity of the bacteria was assessed by adding 20 µL of a redox indicator, resazurin (Sigma-Aldrich, St. Louis, MO, USA), at a concentration of 0.1 mg/mL, to the wells. The plate was then incubated for a further two hours. The minimum inhibitory concentration (MIC) was determined as the lowest concentration of the peptide at which no color change in the resazurin indicator was observed. The results were presented as median values, which were determined based on at least three independent experiments carried out in triplicate.

E. coli ATCC 25922 = format: cell-based; conditions: ATCC 25922, 24 h
Method: as §1

all the test strains = format: cell-based; conditions: geometric mean over the 10 test strains
Method: as §1

E. coli ML35p = format: cell-based
Method: as §1

[2] = system: Acinetobacter baumannii (strain XDR CI 2675); format: cell-based
Method: as §1

E. coli BW 25113 = format: cell-based; conditions: two-fold serial dilutions, 24 h incubation, resazurin read-out; median of at least three independent experiments in triplicate
Method: as §1

[3] = system: human keratinocyte cell line (HaCaT); assay: Cytotoxicity MTT assay; format: cell-based; conditions: 18 h, 128
Method: In order to evaluate the cytotoxicity of the peptides against a human keratinocyte cell line (HaCaT, Cat. No. 300493) (Cell Lines Service, Köln, Germany), the colorimetric 3-(4,5-dimethylthiazol-2-yl)-2,5-diphenyltetrazolium bromide (MTT) dye reduction assay was performed, as described in a previous publication. Wells containing no peptide were used as a 100% survival control. Each peptide was tested in two separate experiments to ensure the reliability of the results.

S. aureus ATCC 29213 = format: cell-based, Staphylococcus aureus; conditions: ATCC 29213, 24 h
Method: as §1

S. aureus 209P = format: cell-based, Staphylococcus aureus; conditions: 24 h
Method: as §1

P. aeruginosa ATCC 27853 = format: cell-based, Pseudomonas aeruginosa; conditions: ATCC 27853, 24 h
Method: as §1

P. aeruginosa PAO1 = format: cell-based, Pseudomonas aeruginosa; conditions: PAO1, 24 h
Method: as §1

[4] = system: freshly isolated human erythrocytes (hRBCs); assay: Hemolysis assay (hemoglobin release); format: cell-based; conditions: red cells of human, 64
Description: To assess the hemolytic activity of the compounds, freshly isolated human erythrocytes (hRBCs) were used according to the methodology described in a previous study. Melittin was used as a positive peptide control that induces significant hemolysis. Isotonic phosphate buffer (PBS) served as a negative control, while 0.1% Triton X-100 solution was used as a control for complete hemolysis.

M. luteus B-1314 = format: cell-based, Micrococcus luteus; conditions: B-1314, 24 h
Method: as §1

[5] = two-fold serial dilutions, 24 h incubation, resazurin read-out, median of at least three independent experiments in triplicate
[6] = strain XDR CI 2675, two-fold serial dilutions, 24 h incubation, resazurin read-out, median of at least three independent experiments in triplicate

Structure (SMILES) | MIC, K. pneumoniae ATCC 700603 [1] | MIC, E. coli ATCC 25922 (E. coli ATCC 25922) | MIC (GM), geometric mean of the peptide's MICs against all the test strains (all the test strains) | MIC, E. coli ML35p (E. coli ML35p; ML35p, 24 h) | MIC, A. baumannii ([2]; strain XDR CI 2675, 24 h) | MIC, E. coli BW 25113 (E. coli BW 25113) | Cell Viability, % (128 μM) [3] | MIC, S. aureus ATCC 29213 (S. aureus ATCC 29213) | MIC, S. aureus 209P (S. aureus 209P) | MIC, P. aeruginosa ATCC 27853 (P. aeruginosa ATCC 27853) | MIC, P. aeruginosa PAO1 (P. aeruginosa PAO1) | Hemolytic activity, % (64 μM) [4] | MIC, M. luteus B-1314 (M. luteus B-1314) | MIC, E. coli ML35p (E. coli ML35p; [5]) | MIC, A. baumannii [2, 6]
CC(C)C[C@H](NC(=O)[C@H](CCCNC(=N)N)NC(=O)CNC(=O)CNC(=O)[C@@H](N)CCCNC(=N)N)C(=O)N[C@H]1CSSC[C@@H](C(=O)N[C@H](C(=O)NCC(=O)N[C@@H](CCCNC(=N)N)C(=O)O)C(C)C)NC(=O)[C@H](CCCNC(=N)N)NC(=O)[C@@H]2CSSC[C@H](NC(=O)[C@H](Cc3ccc(O)cc3)NC1=O)C(=O)N[C@@H](CCCNC(=N)N)C(=O)N[C@@H](CCCNC(=N)N)C(=O)N[C@@H](CCCNC(=N)N)C(=O)N[C@@H](Cc1ccccc1)C(=O)N2 [[V14R]] (H-RGGRLCYCRRRFCRCVGR-OH; disulfide 6-15, 8-13; N-terminus and C-terminus assumed) | 32 µM (≈ 70.8 µg/mL) | 4 µM (≈ 8.85 µg/mL) | 9.8 µM | 4 µM (≈ 8.85 µg/mL) | 2 µM (≈ 4.43 µg/mL) | 2 µM (≈ 4.43 µg/mL) | 98.6 (± 6.0) % | 32 µM (≈ 70.8 µg/mL) | 32 µM (≈ 70.8 µg/mL) | >32 µM | 32 µM (≈ 70.8 µg/mL) | 1.2 (±0.43) % | 2 µM (≈ 4.43 µg/mL) | – | –
CC(C)C[C@H](NC(=O)[C@H](CCCNC(=N)N)NC(=O)CNC(=O)CNC(=O)[C@@H](N)CCCNC(=N)N)C(=O)N[C@H]1CSSC[C@@H](C(=O)N[C@@H](CCCNC(=N)N)C(=O)NCC(=O)N[C@@H](CCCNC(=N)N)C(=O)O)NC(=O)[C@H](C)NC(=O)[C@@H]2CSSC[C@H](NC(=O)[C@H](Cc3ccc(O)cc3)NC1=O)C(=O)N[C@@H](CCCNC(=N)N)C(=O)N[C@@H](CCCNC(=N)N)C(=O)N[C@@H](CCCNC(=N)N)C(=O)N[C@@H](Cc1ccccc1)C(=O)N2 [[V14A,V16R]] (H-RGGRLCYCRRRFCACRGR-OH; disulfide 6-15, 8-13; N-terminus and C-terminus assumed) | 32 µM (≈ 69.9 µg/mL) | 2 µM (≈ 4.37 µg/mL) | 4.9 µM | 1 µM (≈ 2.19 µg/mL) | 0.5 µM (≈ 1.09 µg/mL) | 2 µM (≈ 4.37 µg/mL) | 110.6 (± 6.68) % | 32 µM (≈ 69.9 µg/mL) | 32 µM (≈ 69.9 µg/mL) | 4 µM (≈ 8.74 µg/mL) | 8 µM (≈ 17.5 µg/mL) | 1.1 (±0.15) % | 4 µM (≈ 8.74 µg/mL) | – | –
CC(C)[C@@H]1NC(=O)[C@@H]2CSSC[C@H](NC(=O)[C@H](Cc3ccc(O)cc3)NC(=O)[C@@H](NC(=O)[C@H](C)NC(=O)[C@H](CCCNC(=N)N)NC(=O)CNC(=O)CNC(=O)[C@@H](N)CCCNC(=N)N)CSSC[C@@H](C(=O)N[C@@H](CCCNC(=N)N)C(=O)NCC(=O)N[C@@H](CCCNC(=N)N)C(=O)O)NC1=O)C(=O)N[C@@H](CCCNC(=N)N)C(=O)N[C@@H](CCCNC(=N)N)C(=O)N[C@@H](CCCNC(=N)N)C(=O)N[C@@H](Cc1ccccc1)C(=O)N2 [[L5A,V16R]] (H-RGGRACYCRRRFCVCRGR-OH; disulfide 6-15, 8-13; N-terminus and C-terminus assumed) | 32 µM (≈ 69.5 µg/mL) | 2 µM (≈ 4.34 µg/mL) | 4.9 µM | 1 µM (≈ 2.17 µg/mL) | 0.5 µM (≈ 1.09 µg/mL) | 2 µM (≈ 4.34 µg/mL) | 94.1 (± 3.51) % | 32 µM (≈ 69.5 µg/mL) | 32 µM (≈ 69.5 µg/mL) | 4 µM (≈ 8.69 µg/mL) | 8 µM (≈ 17.4 µg/mL) | 1.0 (±0.01) % | 4 µM (≈ 8.69 µg/mL) | – | –
CC(C)[C@H](NC(=O)[C@@H]1CSSC[C@H](NC(=O)[C@H](C)NC(=O)[C@H](CCCNC(=N)N)NC(=O)CNC(=O)CNC(=O)[C@@H](N)CCCNC(=N)N)C(=O)N[C@@H](Cc2ccc(O)cc2)C(=O)N[C@H]2CSSC[C@H](NC(=O)[C@H](Cc3ccccc3)NC(=O)[C@H](CCCNC(=N)N)NC(=O)[C@H](CCCNC(=N)N)NC(=O)[C@H](CCCNC(=N)N)NC2=O)C(=O)N[C@@H](C(C)C)C(=O)N1)C(=O)NCC(=O)N[C@@H](CCCNC(=N)N)C(=O)O [[L5A]] (H-RGGRACYCRRRFCVCVGR-OH; disulfide 6-15, 8-13; N-terminus and C-terminus assumed) | 1 µM (≈ 2.11 µg/mL) | 0.5 µM (≈ 1.06 µg/mL) | 0.4 µM | – | – | 0.125 µM (≈ 0.264 µg/mL) | 10.0 (±3.27) % | 1 µM (≈ 2.11 µg/mL) | 1 µM (≈ 2.11 µg/mL) | 0.25 µM (≈ 0.529 µg/mL) | 0.5 µM (≈ 1.06 µg/mL) | 40.3 (±6.95) % | 0.5 µM (≈ 1.06 µg/mL) | 0.25 µM (≈ 0.529 µg/mL) | 0.25 µM (≈ 0.529 µg/mL)
CC(C)C[C@H](NC(=O)[C@H](CCCNC(=N)N)NC(=O)CNC(=O)CNC(=O)[C@@H](N)CCCNC(=N)N)C(=O)N[C@H]1CSSC[C@@H](C(=O)N[C@H](C(=O)NCC(=O)N[C@@H](CCCNC(=N)N)C(=O)O)C(C)C)NC(=O)[C@H](C(C)C)NC(=O)[C@@H]2CSSC[C@H](NC(=O)[C@H](Cc3ccc(O)cc3)NC1=O)C(=O)N[C@@H](CCCNC(=N)N)C(=O)N[C@@H](CCCNC(=N)N)C(=O)N[C@@H](CCCNC(=N)N)C(=O)N[C@@H](Cc1ccccc1)C(=O)N2 [PG-1, Protegrin-1] (H-RGGRLCYCRRRFCVCVGR-OH; disulfide 6-15, 8-13; N-terminus and C-terminus assumed) | 1 µM (≈ 2.16 µg/mL) | 0.5 µM (≈ 1.08 µg/mL) | 0.4 µM | – | – | 0.125 µM (≈ 0.27 µg/mL) | 6.1 (±2.07) % | 1 µM (≈ 2.16 µg/mL) | 0.5 µM (≈ 1.08 µg/mL) | 0.25 µM (≈ 0.539 µg/mL) | 0.5 µM (≈ 1.08 µg/mL) | 96.3 (±10.72) % | 0.25 µM (≈ 0.539 µg/mL) | 0.25 µM (≈ 0.539 µg/mL) | 0.25 µM (≈ 0.539 µg/mL)
